Reference: patent publication US20180148418A1, “AMIDO-SUBSTITUTED CYCLOHEXANE DERIVATIVES” (Bayer Pharma Aktiengesellschaft, priority 2015, published 2018)

Key:
[1] = test system: wildtype Wnt signaling cascade; assay: HEK293 TOP assay (Super TopFlash luciferase reporter, Wnt-3a stimulated); assay type: cell-based; conditions: Homo sapiens, HEK293, 16 h, HEK293 TOP reporter cells, Wnt3a at EC50, 16 hours
How it was run: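 Compound series (50 μM down to 15 nM, 3.16-fold) diluted from DMSO 50-fold into CAFTY buffer, pH 7.4, 2 mM Ca^2+, 0.01% BSA, applied to Wnt-3a-stimulated HEK293 TopFlash and FOP reporter lines in parallel. Cells seeded 10000/well 24 h before; luciferase signal measured.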

[2] = test system: HEK293 cells cotransfected with the FOP control vector; assay: HEK293 FOP assay (control reporter with non-functional TCF elements); assay type: cell-based; conditions: Homo sapiens, 16 hours
How it was run: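 Compound series from 50 μM down to 15 nM, prediluted in DMSO then 50-fold into CAFTY buffer (pH 7.4, 2 mM Ca2+, 0.01% BSA), tested alongside TOP cells on a Geneticin-selected HEK293 FOP line whose TCF elements are replaced by a random sequence; recombinant human Wnt-3a applied at 2500-5 ng/ml.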

TNKS2 = target: T1, TNKS2 (Homo sapiens, UniProt Q9H2K2); assay: TNKS2 Assay B (auto-parsylation, [3H]-NAD+ SPA); assay type: biochemical; conditions: 6 nM TNKS2, auto-parsylation, over night at room temperature
T1 construct: purchased BPS Bioscience, San Diego, USA 80572 (TNKS2 Histone Ribosylation Assay Kit)
T1 sequence (Q9H2K2 1-1166): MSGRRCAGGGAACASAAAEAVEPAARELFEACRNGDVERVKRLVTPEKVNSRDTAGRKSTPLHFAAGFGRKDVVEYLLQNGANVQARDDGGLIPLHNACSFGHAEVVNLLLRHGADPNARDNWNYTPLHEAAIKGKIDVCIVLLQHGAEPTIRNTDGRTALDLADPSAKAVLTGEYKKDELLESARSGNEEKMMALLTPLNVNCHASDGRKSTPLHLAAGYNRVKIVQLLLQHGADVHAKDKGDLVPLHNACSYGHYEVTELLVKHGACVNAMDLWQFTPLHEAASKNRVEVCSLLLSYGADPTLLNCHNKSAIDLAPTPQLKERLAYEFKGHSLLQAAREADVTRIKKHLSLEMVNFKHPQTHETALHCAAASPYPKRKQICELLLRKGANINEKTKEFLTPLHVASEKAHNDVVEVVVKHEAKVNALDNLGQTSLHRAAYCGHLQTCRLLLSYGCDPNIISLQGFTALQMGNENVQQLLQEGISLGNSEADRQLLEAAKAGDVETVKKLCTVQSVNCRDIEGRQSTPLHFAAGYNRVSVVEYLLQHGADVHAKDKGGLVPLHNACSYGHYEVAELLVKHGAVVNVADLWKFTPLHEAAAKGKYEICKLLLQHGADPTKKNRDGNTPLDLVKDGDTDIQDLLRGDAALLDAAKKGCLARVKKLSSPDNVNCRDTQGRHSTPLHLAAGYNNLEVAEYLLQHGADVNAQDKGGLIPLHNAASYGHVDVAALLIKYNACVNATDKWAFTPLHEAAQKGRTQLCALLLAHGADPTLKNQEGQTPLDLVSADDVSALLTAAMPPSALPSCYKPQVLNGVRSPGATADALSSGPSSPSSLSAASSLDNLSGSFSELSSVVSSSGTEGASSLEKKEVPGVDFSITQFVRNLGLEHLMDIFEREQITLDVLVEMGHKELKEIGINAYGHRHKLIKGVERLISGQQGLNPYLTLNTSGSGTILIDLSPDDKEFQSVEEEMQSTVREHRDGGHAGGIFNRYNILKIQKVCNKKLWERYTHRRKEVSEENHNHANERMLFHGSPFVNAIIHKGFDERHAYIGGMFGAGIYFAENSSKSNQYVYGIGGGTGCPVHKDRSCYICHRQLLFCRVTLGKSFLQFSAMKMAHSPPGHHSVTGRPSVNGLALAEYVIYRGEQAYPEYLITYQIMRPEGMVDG

Cc1cc(N2CC[C@]3(CC[C@@H](NC(=O)c4[nH]cnc4C(=O)N4CC(F)C4)CC3)C2=O)c(Cl)cc1F [Example 292, N-[(trans)-2-(2-chloro-4-fluoro-5-methylphenyl)-1-oxo-2-azaspiro[4.5]dec-8-yl]-4-[(3-fluoroazetidin-1-yl)carbonyl]-1H-imidazole-5-carboxamide]
IC50 [1]: 1.6 nM
IC50 [2]: 10000 nM
IC50 (TNKS2): 8.8 nM

Cc1cc(N2CC[C@]3(CC[C@@H](NC(=O)c4[nH]cnc4C(=O)N4CC5(COC5)C4)CC3)C2=O)c(Cl)cc1F [Example 293, N-[(trans)-2-(2-chloro-4-fluoro-5-methylphenyl)-1-oxo-2-azaspiro[4.5]dec-8-yl]-4-(2-oxa-6-azaspiro[3.3]hept-6-ylcarbonyl)-1H-imidazole-5-carboxamide]
IC50 [1]: 1.6 nM
IC50 [2]: ≥ 50000 nM
IC50 (TNKS2): 7.9 nM

Cc1cc(N2CC[C@]3(CC[C@@H](NC(=O)c4[nH]cnc4C(=O)N4CCN(C)CC4)CC3)C2=O)c(Cl)cc1F [Example 294, N-[(trans)-2-(2-chloro-4-fluoro-5-methylphenyl)-1-oxo-2-azaspiro[4.5]dec-8-yl]-4-[(4-methylpiperazin-1-yl)carbonyl]-1H-imidazole-5-carboxamide]
IC50 [1]: 46 nM
IC50 [2]: ≥ 50000 nM
IC50 (TNKS2): 150 nM

Cc1cc(N2CC[C@]3(CC[C@@H](NC(=O)c4[nH]cnc4C(=O)NC4CC4)CC3)C2=O)c(Cl)cc1F [Example 295, N^5-[(trans)-2-(2-chloro-4-fluoro-5-methylphenyl)-1-oxo-2-azaspiro[4.5]dec-8-yl]-N^4-cyclopropyl-1H-imidazole-4,5-dicarboxamide]
IC50 [1]: 1 nM
IC50 [2]: 12000 nM
IC50 (TNKS2): 9.2 nM

Cc1cc(N2CC[C@]3(CC[C@@H](NC(=O)c4[nH]cnc4C(=O)N4CC(OC(F)F)C4)CC3)C2=O)c(Cl)cc1F [Example 296, N-[(trans)-2-(2-chloro-4-fluoro-5-methylphenyl)-1-oxo-2-azaspiro[4.5]dec-8-yl]-4-{[3-(difluoromethoxy)azetidin-1-yl]carbonyl}-1H-imidazole-5-carboxamide]
IC50 [1]: 1.3 nM
IC50 [2]: 35000 nM
IC50 (TNKS2): 8.3 nM

Cc1cc(N2CCC[C@]3(CC[C@@H](NC(=O)c4[nH]cnc4C(=O)N4CC(F)C4)CC3)C2=O)c(Cl)cc1F [Example 303, N-[(trans)-2-(2-chloro-4-fluoro-5-methylphenyl)-1-oxo-2-azaspiro[5.5]undec-9-yl]-4-[(3-fluoroazetidin-1-yl)carbonyl]-1H-imidazole-5-carboxamide]
IC50 [1]: 14 nM
IC50 [2]: ≥ 500 nM
IC50 (TNKS2): 32 nM

CNC(=O)c1nc[nH]c1C(=O)N[C@H]1CC[C@@]2(CCCN(c3cc(C)c(F)cc3Cl)C2=O)CC1 [Example 304, N^5-[(trans)-2-(2-chloro-4-fluoro-5-methylphenyl)-1-oxo-2-azaspiro[5.5]undec-9-yl]-N^4-methyl-1H-imidazole-4,5-dicarboxamide]
IC50 [1]: 11 nM
IC50 [2]: ≥ 500 nM
IC50 (TNKS2): 47 nM

CCNC(=O)c1nc[nH]c1C(=O)N[C@H]1CC[C@@]2(CCCN(c3cc(C)c(F)cc3Cl)C2=O)CC1 [Example 305, N^5-[(trans)-2-(2-chloro-4-fluoro-5-methylphenyl)-1-oxo-2-azaspiro[5.5]undec-9-yl]-N^4-ethyl-1H-imidazole-4,5-dicarboxamide]
IC50 [1]: 8.1 nM
IC50 [2]: ≥ 500 nM
IC50 (TNKS2): 65 nM

COCCNC(=O)c1nc[nH]c1C(=O)N[C@H]1CC[C@@]2(CCCN(c3cc(C)c(F)cc3Cl)C2=O)CC1 [Example 306, N^5-[(trans)-2-(2-chloro-4-fluoro-5-methylphenyl)-1-oxo-2-azaspiro[5.5]undec-9-yl]-N^4-(2-methoxyethyl)-1H-imidazole-4,5-dicarboxamide]
IC50 [1]: 12 nM
IC50 [2]: ≥ 500 nM
IC50 (TNKS2): 67 nM

Cc1cc(N2CCC[C@]3(CC[C@@H](NC(=O)c4[nH]cnc4C(=O)NC4CC4)CC3)C2=O)c(Cl)cc1F [Example 308, N^5-[(trans)-2-(2-chloro-4-fluoro-5-methylphenyl)-1-oxo-2-azaspiro[5.5]undec-9-yl]-N^4-cyclopropyl-1H-imidazole-4,5-dicarboxamide]
IC50 [1]: 5.4 nM
IC50 [2]: 11000 nM
IC50 (TNKS2): 110 nM

Cc1cc(N2CCC[C@]3(CC[C@@H](NC(=O)c4[nH]cnc4C(N)=O)CC3)C2=O)c(Cl)cc1F [Example 309, N^5-[(trans)-2-(2-chloro-4-fluoro-5-methylphenyl)-1-oxo-2-azaspiro[5.5]undec-9-yl]-1H-imidazole-4,5-dicarboxamide]
IC50 [1]: 100 nM
IC50 [2]: ≥ 50000 nM
IC50 (TNKS2): 45 nM

Cc1cc(N2CCC[C@]3(CC[C@@H](NC(=O)c4[nH]cnc4C(=O)NC(C)C)CC3)C2=O)c(Cl)cc1F [Example 310, N^5-[(trans)-2-(2-chloro-4-fluoro-5-methylphenyl)-1-oxo-2-azaspiro[5.5]undec-9-yl]-N^4-(propan-2-yl)-1H-imidazole-4,5-dicarboxamide]
IC50 [1]: 15 nM
IC50 [2]: 13000 nM
IC50 (TNKS2): 270 nM

Cc1cc(N2CCC[C@]3(CC[C@@H](NC(=O)c4[nH]cnc4C(=O)N4CC5(COC5)C4)CC3)C2=O)c(Cl)cc1F [Example 311, N-[(trans)-2-(2-chloro-4-fluoro-5-methylphenyl)-1-oxo-2-azaspiro[5.5]undec-9-yl]-4-(2-oxa-6-azaspiro[3.3]hept-6-ylcarbonyl)-1H-imidazole-5-carboxamide]
IC50 [1]: 30 nM
IC50 [2]: ≥ 50000 nM
IC50 (TNKS2): 41 nM

Cc1cc(N2CCC[C@]3(CC[C@@H](NC(=O)c4[nH]cnc4C(=O)NCCN4CCC(C)CC4)CC3)C2=O)c(Cl)cc1F [Example 312, N^5-[(trans)-2-(2-chloro-4-fluoro-5-methylphenyl)-1-oxo-2-azaspiro[5.5]undec-9-yl]-N^4-[2-(4-methylpiperidin-1-yl)ethyl]-1H-imidazole-4,5-dicarboxamide]
IC50 [1]: 24 nM
IC50 [2]: ≥ 500 nM
IC50 (TNKS2): 4.1 nM

O=C(N[C@H]1CC[C@@]2(CCCN(c3cc(F)c(F)cc3Cl)C2=O)CC1)c1cnn2cccnc12 [Example 313, N-[(trans)-2-(2-chloro-4,5-difluorophenyl)-1-oxo-2-azaspiro[5.5]undec-9-yl]pyrazolo[1,5-a]pyrimidine-3-carboxamide]
IC50 [1]: 2.7 nM
IC50 [2]: ≥ 500 nM
IC50 (TNKS2): 10 nM

O=C(N[C@H]1CC[C@@]2(CCCN(c3cc(F)c(F)cc3Cl)C2=O)CC1)c1cnc2cccnn12 [Example 314, N-[(trans)-2-(2-chloro-4,5-difluorophenyl)-1-oxo-2-azaspiro[5.5]undec-9-yl]imidazo[1,2-b]pyridazine-3-carboxamide]
IC50 [1]: 6.3 nM
IC50 [2]: ≥ 500 nM
IC50 (TNKS2): 22 nM

Cc1cc(C)n2ncc(C(=O)N[C@H]3CC[C@@]4(CCCN(c5cc(F)c(F)cc5Cl)C4=O)CC3)c2n1 [Example 315, N-[(trans)-2-(2-chloro-4,5-difluorophenyl)-1-oxo-2-azaspiro[5.5]undec-9-yl]-5,7-dimethylpyrazolo[1,5-a]pyrimidine-3-carboxamide]
IC50 [1]: 3.9 nM
IC50 [2]: ≥ 500 nM
IC50 (TNKS2): 14 nM

O=C(N[C@H]1CC[C@@]2(CCCN(c3cc(F)c(F)cc3Cl)C2=O)CC1)c1[nH]cnc1C(=O)N1CC(F)C1 [Example 316, N-[(trans)-2-(2-chloro-4,5-difluorophenyl)-1-oxo-2-azaspiro[5.5]undec-9-yl]-4-[(3-fluoroazetidin-1-yl)carbonyl]-1H-imidazole-5-carboxamide]
IC50 [1]: 1.6 nM
IC50 [2]: ≥ 500 nM
IC50 (TNKS2): 5 nM
